Measurements published in patent US10793601B2, “Therapeutic spalt-like transcription factor 4 (SALL4) peptide” (National University of Singapore, priority 2016, dated 2020).
Ends that are not written are not given here.

Assays:
PTEN = PTEN mRNA in resected SNU398 tumors by real-time PCR; type: in vivo, NOD/SCID/gamma mice; settings: harvested SNU398 tumors
Protocol: FIGS. 7A-7E. Anti-tumor activity of the candidate therapeutic peptide FFW. FIG. 7A: 7.2×10^5 SNU398 cells were inoculated subcutaneously into the right flank of NOD/SCID/gamma mice (NSG mice). Tumors were allowed to grow for one week before peptide treatments were administered every alternate day for a total of five injections. FIG. 7B: Tumor growth was documented by plotting tumor volume against time. […] FIG. 7C: Relative size of tumors resected on day 20. FIG. 7D: tumor weight was determined (n=5). PEN-FFW treated mice had the smallest tumors (μ=88.34 mg) compared to PEN (μ=1550.78 mg), PEN-MUT (μ=1273.46 mg) and PEN-WT (μ=563.46 mg). FIG. 7E: Total RNA was isolated from the resected tumors and expression of PTEN was measured using real-time PCR.
Tumors resected from mice were homogenized in Trizol. Total RNA was extracted and treated with RNase-free DNase (Qiagen). Reverse transcription was carried out using Superscript III Reverse Transcriptase. Quantitative PCR was performed using GoTaq qPCR Master Mix (Promega). Amplification was done with a Corbett Rotor Gene 6000 (Qiagen). Each sample was assayed in triplicate.

SNU387 cells = experiment: Cell viability assay in SNU387 cells (no SALL4 expression); type: cell-based; settings: cell viability after 72 hr
Protocol: FIGS. 6A-6B. Therapeutic window of PEN-FFW in HCC cell lines. FIG. 6A: Peptides were added to HCC cell line SNU398 with high expression of SALL4. FIG. 6B: HCC cell line SNU387 with no expression of SALL4, and cell viability was measured after 72 hr of incubation.
The efficacies of the FFW, WT and MUT peptides were compared at the cellular level and in mice. A penetratin sequence (PEN) was attached to the N-terminus of each peptide to facilitate cell penetration in vitro. […] The therapeutic window of PEN-FFW in SALL4 expressing HCC cells was accessed in SNU387 cells, a HCC line with undetectable level of SALL4, as well as SNU398. The MUT and WT SALL4 peptides were also included in this assay for comparison (FIGS. 6 A & B).

Sequence: RQIKIWFQNRRMKWKKRRKFAKFQWI [PEN-FFW]
- increase in PTEN expression in tumors compared to PEN control mice (PTEN): 9 fold
- specificity SNU398 (SALL4 high) versus SNU387 (no SALL4) (SNU387 cells): specificity of PEN-FFW in targeting SALL4-high HCC cells (SNU398)
